Laboratory results reported in patent US10676509B2, “Surface-immobilized antimicrobial peptoids” (Northwestern University, priority 2008, dated 2020).
Non-standard residues stand in square brackets, D forms with d. Residues, ends and D or L forms follow the SMILES beside them. Dopa = N[C@@H](Cc1ccc(O)c(O)c1)C(=O)O; Nme = COCCNCC(=O)O

How the values were obtained:
E. coli = assay type: cell-based, Escherichia coli (ATCC 35218); conditions: 16 h
Method: (§1) The polymers were initially tested to determine their antibacterial properties in the solution state. Antibacterial activities of the compounds were tested using the methods described above for both Gram-negative and Gram-positive bacterial strains.
(§2) The minimum inhibitory concentration (MIC) for each polymer was determined according to Clinical Laboratory Standards Institute (CLSI) broth microdilution protocols (M7-A6). The procedure explained previously was followed (Chongsiriwatana et al., supra); briefly, serial dilutions of the polymers were prepared in Mueller-Hinton broth (MHB) in 96-well microtiter plates and bacterial inoculum in MHB was added to each well (˜5.0×10^4 CFU/well). Optical density was monitored at 590 nm for 16 h at 35° C.

S. epidermidis = assay type: cell-based, Staphylococcus epidermidis RP62A (ATCC 12228); conditions: 16 h
Method: as §1, §2

[1] = molecular target: T1, fibrinogen from human plasma (Homo sapiens, UniProt P02671+P02675+P02679); assay: Short-term fibrinogen adsorption on modified TiO2 sensors using OWLS; conditions: Table 7, fibrinogen 3 mg/ml, 20 min, 37° C., mean ± SD
T1 construct: fibrinogen from human plasma was dissolved at 3 mg/ml concentrations in buffer B; purchased Aldrich (Milwaukee, Wis.); host or cells: human plasma
T1 sequence (P02671 20-644 isoform P02671-2 limits assumed): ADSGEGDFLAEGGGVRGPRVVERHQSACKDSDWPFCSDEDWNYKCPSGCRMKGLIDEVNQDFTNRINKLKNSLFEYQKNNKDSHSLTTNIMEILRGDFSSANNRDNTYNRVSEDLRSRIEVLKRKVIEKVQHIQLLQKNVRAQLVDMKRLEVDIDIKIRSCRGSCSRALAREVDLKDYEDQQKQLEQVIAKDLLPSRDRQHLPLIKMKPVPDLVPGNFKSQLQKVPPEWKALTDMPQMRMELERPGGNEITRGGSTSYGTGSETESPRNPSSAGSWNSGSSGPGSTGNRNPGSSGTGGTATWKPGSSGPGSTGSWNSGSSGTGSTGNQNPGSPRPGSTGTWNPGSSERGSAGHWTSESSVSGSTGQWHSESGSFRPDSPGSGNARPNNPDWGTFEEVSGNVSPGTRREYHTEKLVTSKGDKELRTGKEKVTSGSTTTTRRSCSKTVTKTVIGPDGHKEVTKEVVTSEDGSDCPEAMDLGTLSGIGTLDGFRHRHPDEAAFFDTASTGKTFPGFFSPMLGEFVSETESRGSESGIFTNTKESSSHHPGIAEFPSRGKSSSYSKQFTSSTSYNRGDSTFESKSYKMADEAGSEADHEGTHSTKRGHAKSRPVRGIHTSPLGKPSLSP
T1 sequence (P02675 31-491): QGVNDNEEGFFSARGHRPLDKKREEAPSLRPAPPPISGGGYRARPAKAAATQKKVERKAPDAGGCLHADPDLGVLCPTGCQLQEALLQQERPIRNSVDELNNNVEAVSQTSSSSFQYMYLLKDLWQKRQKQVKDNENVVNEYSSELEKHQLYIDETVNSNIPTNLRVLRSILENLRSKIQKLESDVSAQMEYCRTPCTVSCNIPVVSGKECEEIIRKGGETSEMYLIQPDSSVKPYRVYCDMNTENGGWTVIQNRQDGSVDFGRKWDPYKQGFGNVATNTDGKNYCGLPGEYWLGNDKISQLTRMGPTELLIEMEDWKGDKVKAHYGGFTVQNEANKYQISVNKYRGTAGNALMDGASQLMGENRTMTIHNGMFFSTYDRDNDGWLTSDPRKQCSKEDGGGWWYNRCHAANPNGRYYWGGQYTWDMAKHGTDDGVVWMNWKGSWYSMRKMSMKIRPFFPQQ
T1 sequence (P02679 27-437 isoform P02679-2 limits assumed): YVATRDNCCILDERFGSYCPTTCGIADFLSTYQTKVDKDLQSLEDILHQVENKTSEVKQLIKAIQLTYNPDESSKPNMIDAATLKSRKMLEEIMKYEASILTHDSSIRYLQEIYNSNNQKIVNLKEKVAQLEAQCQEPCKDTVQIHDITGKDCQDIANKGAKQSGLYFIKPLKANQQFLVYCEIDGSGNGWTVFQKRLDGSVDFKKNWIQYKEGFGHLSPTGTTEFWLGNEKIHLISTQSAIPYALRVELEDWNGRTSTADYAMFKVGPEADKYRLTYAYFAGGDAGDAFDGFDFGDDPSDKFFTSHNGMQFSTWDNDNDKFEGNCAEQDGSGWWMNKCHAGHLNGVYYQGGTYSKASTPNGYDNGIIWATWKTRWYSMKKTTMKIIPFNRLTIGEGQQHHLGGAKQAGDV
Method: Lyophilized human serum was reconstituted in water to reach the typical concentration in blood; fibrinogen from human plasma was dissolved at 3 mg/ml concentrations in buffer B (10 mM HEPES, 150 mM NaCl, pH=7.4). For in situ protein-adsorption experiments, TiO2 coated waveguide sensors were modified with peptidomimetic polymers as explained previously. After equilibration of the OWLS baseline in buffer B, protein solution was injected and allowed to adsorb for 20 min at 37° C. before rinsing with buffer B. A refractive index value of 1.331 27 was used for buffer B, and a standard value of 0.182 cm^3/g was used for dn/dc in the protein-adsorption calculations.

B. subtilis = assay type: cell-based, Bacillus subtilis (ATCC 6633); conditions: 16 h
Method: as §1, §2

P. aeruginosa = assay type: cell-based, Pseudomonas aeruginosa (ATCC 700829); conditions: 16 h
Method: as §1, §2

- MIC E. coli (E. coli): >100 µM
- MIC S. epidermidis (S. epidermidis): >100 µM
- Adsorbed mass Fibrinogen [1]: 7 ± 3 ng/cm^2
- MIC B. subtilis (B. subtilis): >100 µM
- MIC P. aeruginosa (P. aeruginosa): >100 µM
SMILES: COCCN(CC(=O)N(CCOC)CC(=O)N(CCOC)CC(=O)N(CCOC)CC(=O)N(CCOC)CC(=O)N(CCOC)CC(=O)N(CCOC)CC(=O)N(CCOC)CC(=O)N(CCOC)CC(=O)N(CCOC)CC(=O)N(CCOC)CC(=O)N(CCOC)CC(=O)N(CCOC)CC(=O)N(CCOC)CC(=O)N(CCOC)CC(=O)N(CCOC)CC(=O)N(CCOC)CC(=O)N(CCOC)CC(=O)N(CCOC)CC(=O)N(CCOC)CC(=O)N[C@@H](Cc1ccc(O)c(O)c1)C(=O)N[C@@H](CCCCN)C(=O)N[C@@H](Cc1ccc(O)c(O)c1)C(=O)N[C@@H](CCCCN)C(=O)N[C@@H](Cc1ccc(O)c(O)c1)C(N)=O)C(C)=O [PMP1, (Nme)20-(DOPA-Lys)2-DOPA] (Ac-[Nme][Nme][Nme][Nme][Nme][Nme][Nme][Nme][Nme][Nme][Nme][Nme][Nme][Nme][Nme][Nme][Nme][Nme][Nme][Nme][Dopa]K[Dopa]K[Dopa]-NH2; N-terminus and C-terminus assumed)
